Laboratory results reported in BindingDB's records for doi:10.1002/cbic.201200571 (Technical University of Dortmund, 2013).
pIC50: −log10 of the molar value.

Legend:
[1] = target: Acyl-protein thioesterase 1 (Homo sapiens, UniProt O75608); test: Enzymatic Protein Activity Assay
Procedure: (§1) The enzyme activities were determined by measuring the release of fluorescent 6,8-difluoro-4-methylumbelliferone (DiFMU) by the APT hydrolysis of DiFMU octanoate (DiFMUO) in a Tecan Infinite M200 microplate reader in a 96-well format.

[2] = target: Acyl-protein thioesterase 2 (Homo sapiens, UniProt O95372); test: Enzymatic Protein Activity Assay
Chain of Acyl-protein thioesterase 2 (O95372 whole entry): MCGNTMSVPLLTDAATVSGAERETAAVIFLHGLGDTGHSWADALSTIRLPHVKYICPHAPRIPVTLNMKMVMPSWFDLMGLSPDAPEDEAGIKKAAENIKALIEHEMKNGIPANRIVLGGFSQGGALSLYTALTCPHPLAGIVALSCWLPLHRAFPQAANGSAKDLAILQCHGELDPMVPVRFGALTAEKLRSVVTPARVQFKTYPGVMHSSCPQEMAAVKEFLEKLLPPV
Procedure: as §1

Chain of Acyl-protein thioesterase 1 (O75608 whole entry): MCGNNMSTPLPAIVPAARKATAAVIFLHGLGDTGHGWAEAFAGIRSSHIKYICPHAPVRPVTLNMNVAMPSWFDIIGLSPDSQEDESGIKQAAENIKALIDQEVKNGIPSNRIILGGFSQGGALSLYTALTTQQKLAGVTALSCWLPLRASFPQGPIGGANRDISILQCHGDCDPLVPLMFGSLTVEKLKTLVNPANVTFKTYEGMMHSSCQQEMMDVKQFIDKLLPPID

SMILES | pIC50 [1] | pIC50 [2]
OB(O)c1ccc(Cl)c(Cl)c1 [3,4-Dichlorophenyl boronic acid] | 5.96 | 6.86
OB(O)c1ccccc1-c1ccccc1 [(2-phenylphenyl)boranediol] | < 4.30 | < 4.30
OB(O)c1ccc(-c2ccccc2)cc1 [(4-phenylphenyl)boranediol] | 4.77 | 5.45
OB(c1ccccc1)c1cccc(COCc2cccc(B(O)c3ccccc3)c2)c1 [Phenylboronic acid, 7] | 4.47 | 4.38
OB(O)c1cc(F)cc(F)c1 [Phenylboronic acid, 8] | 6.29 | 5.71
OB(O)c1cccc(Cl)c1 [Phenylboronic acid, 10] | 5.85 | 6.38
OB(O)c1cc2ccccc2s1 [Phenylboronic acid, 11] | 5.64 | 6.28
NCCOB(c1ccccc1)c1ccc(COCc2ccc(B(OCCN)c3ccccc3)cc2)cc1 [Phenylboronic acid, 13] | 5.57 | 5.39
CN(C)CCOB(c1ccccc1)c1cccc(COCc2cccc(B(OCCN(C)C)c3ccccc3)c2)c1 [Phenylboronic acid, 14] | 5.49 | 5.74
OB(O)c1cc(Oc2ccccc2)ccc1I [Phenylboronic acid, 15] | 5.49 | 6.62
COC(=O)c1cc(B(O)O)cc([N+](=O)[O-])c1 [Phenylboronic acid, 16] | 5.43 | 5.53
CC(=O)c1cccc(B(O)O)c1 [Phenylboronic acid, 17] | 5.41 | 5.54
OB(O)c1ccc(Cl)cc1 [Phenylboronic acid, 18] | 5.34 | 5.38
Cc1ccc(Br)c(B(O)O)c1 [Phenylboronic acid, 19] | 5.20 | 5.67
OB(O)c1cc2ccccc2o1 [Phenylboronic acid, 21] | 4.87 | 4.95
OB(O)c1ccccc1 [Phenylboronic acid, 22] | 4.83 | 4.60
